US7138361B2, “Herbicidal heterocycles” (E. I. du Pont de Nemours and Company, priority 2000, dated 2006)

Legend:
Type in all cases: in vivo
Sunflower = test: Test C preemergence; conditions: scale 0 to 100, 0 no effect, 100 complete control
soybean (Glycine max) = test: Test C preemergence; conditions: for Plant response rating (0 to 100), Soybean: Rate 500 g/ha, visual evaluation after 12 to 14 days
Excerpt: (§1) Seeds of plant species selected from bermudagrass (Cynodon dactylon), Surinam grass (Brachiaria decumbens), cocklebur (Xanthium strumarium), corn (Zea mays), crabgrass (Digitaria sanguinalis), woolly cupgrass (Eriochloa villosa), giant foxtail (Setaria faberii), goosegrass (Eleusine indica), johnsongrass (Sorghum halepense), kochia (Kochia scoparia), lambsquarters (Chenopodium album), morningglory (Ipomoea hederacea), yellow nutsedge (Cyperus esculentus), pigweed (Amaranthus retroflexus), common ragweed (Ambrosia elatior), soybean (Glycine max) and velvetleaf (Abutilon theophrasti) were planted and treated preemergence with test chemicals formulated in a non-phytotoxic solvent mixture which included a surfactant.
(§2) At the same time, plants selected from these crop and weed species and also winter barley (Hordeum vulgare), blackgrass (Alopecurus myosuroides), canary grass (Phalaris minor), chickweed (Stellaria media), downy brome (Bromus tectorum), green foxtail (Setaria viridis), Italian ryegrass (Lolium multiflorum), wheat (Triticum aestivum), wild oat (Avena fatua) and windgrass (Apera spica-venti) were treated with postemergence applications of some of the test chemicals formulated in the same manner. Plants ranged in height from 2 to 18 cm (1- to 4-leaf stage) for postemergence treatments. Plant species in the flooded paddy test consisted of rice (Oryza saliva), smallflower flatsedge (Cyperus difformis), duck salad (Heteranthera limosa) and barnyardgrass (Echinochloa crus-galli) grown to the 2-leaf stage for testing. Treated plants and controls were maintained in a greenhouse for 12 to 14 days, after which time all species were compared to controls and visually evaluated. Plant response ratings, summarized in Table C, are based on a scale of 0 to 100 where 0 is no effect and 100 is complete control. A dash (-) response means no test result.

[1] = system: bermudagrass (Cynodon dactylon); test: Test C preemergence; conditions: for Plant response rating (0 to 100 where 0 is no effect and 100 is complete control), Bermudagrass: visual evaluation after 12 to 14 days
Excerpt: as §1, §2

[2] = system: Surinam grass (Brachiaria decumbens); test: Test C preemergence; conditions: for Plant response rating (0 to 100), Surinam grass: visual evaluation after 12 to 14 days
Excerpt: as §1, §2

kochia (Kochia scoparia) = test: Test C preemergence; conditions: for Plant response rating (0 to 100), Kochia: visual evaluation after 12 to 14 days
Excerpt: as §1, §2

[3] = system: giant foxtail (Setaria faberii); test: Test C preemergence; conditions: for Plant response rating (0 to 100), Foxtail, Giant: visual evaluation after 12 to 14 days
Excerpt: as §1, §2

[4] = system: woolly cupgrass (Eriochloa villosa); test: Test C preemergence; conditions: for Plant response rating (0 to 100), Cupgrass, Woolly: visual evaluation after 12 to 14 days
Excerpt: as §1, §2

[5] = system: crabgrass (Digitaria sanguinalis); test: Test C preemergence; conditions: for Plant response rating (0 to 100), Crabgrass: visual evaluation after 12 to 14 days
Excerpt: as §1, §2

[6] = system: cocklebur (Xanthium strumarium); test: Test C preemergence; conditions: for Plant response rating (0 to 100), Cocklebur: visual evaluation after 12 to 14 days
Excerpt: as §1, §2

[7] = system: pigweed (Amaranthus retroflexus); test: Test C preemergence; conditions: for Plant response rating (0 to 100), Pigweed: Rate 500 g/ha, visual evaluation after 12 to 14 days
Excerpt: as §1, §2

[8] = system: Surinam grass (Brachiaria decumbens); test: Test B preemergence
In short: (§3)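 Preemergence: seeds planted and treated with test chemicals in non-phytotoxic solvent with surfactant; postemergence on plants 2–18 cm (1- to 4-leaf stage). Kept in greenhouse 13–15 days, then visually rated against controls on a 0 (no effect) to 100 (complete control) scale.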

[9] = system: lambsquarters (Chenopodium album); test: Test B preemergence
In short: as §3

rice (Oryza saliva) = test: Test B preemergence
In short: as §3

[10] = system: giant foxtail (Setaria faberii); test: Test B preemergence
In short: as §3

[11] = system: velvetleaf (Abutilon theophrasti); test: Test B preemergence
In short: as §3

[12] = system: crabgrass (Digitaria sanguinalis); test: Test B preemergence
In short: as §3

[13] = system: cocklebur (Xanthium strumarium); test: Test B preemergence
In short: as §3

[14] = system: pigweed (Amaranthus retroflexus); test: Test B preemergence
In short: as §3

[15] = system: morning glory (Ipomoea hederacea); test: Test B preemergence
In short: as §3

Nightshade = test: Test C preemergence; conditions: Rate 500 g/ha, visual evaluation after 12 to 14 days
[16] = system: barnyardgrass (Echinochloa crus-galli); test: Test B preemergence
In short: as §3

corn (Zea mays) = test: Test B preemergence
In short: as §3

[17] = preemergence, Rate 31 g/ha, scale 0 to 100
[18] = preemergence, Rate 125 g/ha, scale 0 to 100, 0 no effect, 100 complete control
[19] = preemergence, Rate 250 g/ha, scale 0 to 100, 0 no effect, 100 complete control
[20] = Rate 62 g/ha, scale 0 to 100, 0 no effect, 100 complete control
[21] = Preemergence, Rate 500 g/ha, scale 0 to 100, 0 no effect, 100 complete control
[22] = preemergence, Rate 125 g/ha, scale of 0 to 100 where 0 is no effect and 100 is complete control, 13 to 15 days
[23] = Rate 125 g/ha, scale 0 to 100, 0 no effect, 100 complete control
[24] = preemergence, Rate 62 g/ha, scale 0 to 100

CC(C)Oc1cccc(N2CCC(n3ccc(C(C)(C)C)n3)C2=O)c1 (centres unmarked) [Compound 70]
20: Plant response rating, Sunflower (Sunflower; Rate 125 g/ha) | Plant response rating (0 to 100), Soybean (soybean (Glycine max); preemergence) | Plant response rating, Soybean (soybean (Glycine max); [19]) | Plant response rating, Surinam grass [2, 17] | Plant response rating (0 to 100), Cocklebur ([6]; preemergence, Rate 500 g/ha) | Plant response rating, Pigweed [7, 18] | Plant response rating, Morningglory [15, 22]
30: Plant response rating, Crabgrass [5, 17] | Plant response rating, Rice (rice (Oryza saliva); [21]) | Plant response rating, Rice (rice (Oryza saliva); [22])
100: Plant response rating, Bermudagrass [1, 20] | Plant response rating (0 to 100 where 0 is no effect and 100 is complete control), Bermudagrass ([1]; preemergence, Rate 250 g/ha) | Plant response rating (0 to 100 where 0 is no effect and 100 is complete control), Bermudagrass ([1]; preemergence, Rate 500 g/ha) | Plant response rating, Bermudagrass [1, 18] | Plant response rating (0 to 100), Kochia (kochia (Kochia scoparia); preemergence, Rate 250 g/ha) | Plant response rating (0 to 100), Kochia (kochia (Kochia scoparia); preemergence, Rate 500 g/ha) | Plant response rating, Foxtail, Giant [3, 20] | Plant response rating (0 to 100), Foxtail, Giant ([3]; preemergence, Rate 250 g/ha) | Plant response rating (0 to 100), Foxtail, Giant ([3]; preemergence, Rate 500 g/ha) | Plant response rating, Foxtail, Giant [3, 18] | Plant response rating (0 to 100), Cupgrass, Woolly ([4]; preemergence, Rate 250 g/ha) | Plant response rating (0 to 100), Cupgrass, Woolly ([4]; preemergence, Rate 500 g/ha) | Plant response rating, Cupgrass, Woolly [4, 18] | Plant response rating, Crabgrass [5, 20] | Plant response rating (0 to 100), Crabgrass ([5]; preemergence, Rate 250 g/ha) | Plant response rating (0 to 100), Crabgrass ([5]; preemergence, Rate 500 g/ha) | Plant response rating, Crabgrass [5, 18] | Plant response rating (0 to 100), Pigweed ([7]; preemergence) | Plant response rating, Lambsquarters [9, 21] | Plant response rating, Lambsquarters [9, 22] | Plant response rating, Foxtail, Giant [10, 21] | Plant response rating, Crabgrass [12, 21] | Plant response rating, Pigweed [14, 21] | Plant response rating, Pigweed [14, 22]
0: Plant response rating, Soybean (soybean (Glycine max); [17]) | Plant response rating, Kochia (kochia (Kochia scoparia); [17]) | Plant response rating, Foxtail, Giant [3, 17] | Plant response rating, Cupgrass, Woolly [4, 17] | Plant response rating, Cocklebur [6, 20] | Plant response rating, Cocklebur [6, 17] | Plant response rating (0 to 100), Cocklebur ([6]; preemergence, Rate 250 g/ha) | Plant response rating, Cocklebur [6, 18] | Plant response rating, Pigweed [7, 17] | Plant response rating, Pigweed [7, 19] | Plant response rating, Surinam grass [8, 21] | Plant response rating, Surinam grass [8, 22] | Plant response rating, Velvetleaf [11, 21] | Plant response rating, Velvetleaf [11, 22] | Plant response rating, Cocklebur [13, 21] | Plant response rating, Cocklebur [13, 22]
60: Plant response rating, Sunflower (Sunflower; Rate 250 g/ha) | Plant response rating, Surinam grass [2, 20]
70: Plant response rating (0 to 100), Surinam grass ([2]; preemergence, Rate 250 g/ha) | Plant response rating, Surinam grass [2, 18] | Plant response rating, Cupgrass, Woolly [4, 20] | Plant response rating (0 to 100), Nightshade (Nightshade)
80: Plant response rating, Bermudagrass [1, 17] | Plant response rating (0 to 100), Surinam grass ([2]; preemergence, Rate 500 g/ha) | Plant response rating, Kochia (kochia (Kochia scoparia); [20]) | Plant response rating, Morningglory [15, 21]
10: Plant response rating, Soybean (soybean (Glycine max); [18])
90: Plant response rating, Kochia (kochia (Kochia scoparia); [18]) | Plant response rating, Foxtail, Giant [10, 22] | Plant response rating, Crabgrass [12, 22]

CCC(CC)c1ccn(C2CCN(c3cccc(OC(C)C)c3)C2=O)n1 (centres unmarked) [Compound 84]
30: Plant response rating, Sunflower (Sunflower; Rate 250 g/ha) | Plant response rating (0 to 100), Surinam grass ([2]; preemergence, Rate 250 g/ha)
100: Plant response rating, Bermudagrass [1, 23] | Plant response rating, Bermudagrass [1, 24] | Plant response rating (0 to 100 where 0 is no effect and 100 is complete control), Bermudagrass ([1]; preemergence, Rate 250 g/ha) | Plant response rating (0 to 100 where 0 is no effect and 100 is complete control), Bermudagrass ([1]; preemergence, Rate 500 g/ha) | Plant response rating, Kochia (kochia (Kochia scoparia); [23]) | Plant response rating (0 to 100), Kochia (kochia (Kochia scoparia); preemergence, Rate 250 g/ha) | Plant response rating (0 to 100), Kochia (kochia (Kochia scoparia); preemergence, Rate 500 g/ha) | Plant response rating (0 to 100), Foxtail, Giant ([3]; preemergence, Rate 250 g/ha) | Plant response rating (0 to 100), Foxtail, Giant ([3]; preemergence, Rate 500 g/ha) | Plant response rating (0 to 100), Cupgrass, Woolly ([4]; preemergence, Rate 500 g/ha) | Plant response rating, Crabgrass [5, 23] | Plant response rating (0 to 100), Crabgrass ([5]; preemergence, Rate 250 g/ha) | Plant response rating (0 to 100), Crabgrass ([5]; preemergence, Rate 500 g/ha) | Plant response rating, Pigweed [7, 19] | Plant response rating, Surinam grass [8, 21] | Plant response rating, Rice (rice (Oryza saliva); [21]) | Plant response rating, Barnyardgrass [16, 21] | Plant response rating, Barnyardgrass [16, 22] | Plant response rating, Foxtail, Giant [10, 21] | Plant response rating, Foxtail, Giant [10, 22] | Plant response rating, Crabgrass [12, 21] | Plant response rating, Crabgrass [12, 22] | Plant response rating, Pigweed [14, 21] | Plant response rating, Pigweed [14, 22] | Plant response rating (0 to 100), Nightshade (Nightshade)
80: Plant response rating (0 to 100), Surinam grass ([2]; preemergence, Rate 500 g/ha) | Plant response rating, Kochia (kochia (Kochia scoparia); [24]) | Plant response rating, Foxtail, Giant [3, 23] | Plant response rating, Surinam grass [8, 22]
60: Plant response rating, Cupgrass, Woolly [4, 24]
90: Plant response rating, Cupgrass, Woolly [4, 23] | Plant response rating (0 to 100), Cupgrass, Woolly ([4]; preemergence, Rate 250 g/ha) | Plant response rating, Crabgrass [5, 24] | Plant response rating, Pigweed [7, 24] | Plant response rating (0 to 100), Pigweed ([7]; preemergence)
10: Plant response rating, Foxtail, Giant [3, 24]
0: Plant response rating, Soybean (soybean (Glycine max); [23]) | Plant response rating, Soybean (soybean (Glycine max); [24]) | Plant response rating (0 to 100), Soybean (soybean (Glycine max); preemergence) | Plant response rating, Soybean (soybean (Glycine max); [19]) | Plant response rating, Surinam grass [2, 23] | Plant response rating, Surinam grass [2, 24] | Plant response rating, Cocklebur [6, 23] | Plant response rating, Cocklebur [6, 24] | Plant response rating (0 to 100), Cocklebur ([6]; preemergence, Rate 250 g/ha) | Plant response rating (0 to 100), Cocklebur ([6]; preemergence, Rate 500 g/ha) | Plant response rating, Pigweed [7, 23] | Plant response rating, Rice (rice (Oryza saliva); [22]) | Plant response rating, Velvetleaf [11, 21] | Plant response rating, Velvetleaf [11, 22] | Plant response rating, Cocklebur [13, 21] | Plant response rating, Cocklebur [13, 22] | Plant response rating, Corn (corn (Zea mays); [22]) | Plant response rating, Morningglory [15, 21] | Plant response rating, Morningglory [15, 22]
20: Plant response rating, Corn (corn (Zea mays); [21])
